Molecules are shown by their SMILES.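 These data come from cells grown in 96-well plates and exposed to compound for 48 hours at five concentrations. At the TGI there is no net growth.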

What all share (assay): NCI-60 cell line screen, 48 h
For assay [1], the system named is A549 NSCLC.
The subject of assay [2] is MDA-N.
Assay [3] deals with HOP-92 NSCLC.
Assay [4] has as its system MDA-MB-231 breast.
For assay [5], the system named is HL-60(TB) leukemia.
In assay [6] the test system is SK-MEL-28 melanoma.
Assay [7] concerns UO-31 renal.
Assay [8] deals with HS 578T breast.
The test system of assay [9] is SF-268 CNS.
Assay [10] has as its system OVCAR-5 ovarian.
In assay [11] the test system is CCRF-CEM leukemia.
The subject of assay [12] is M14 melanoma.
Assay [13] has as its system KM12 colon.
The test system of assay [14] is HOP-62 NSCLC.
The test system of assay [15] is SF-295 CNS.
In assay [16] the test system is SW-620 colon.
Assay [17] concerns U251 CNS.
Assay [18] has as its system SNB-19 CNS.
Assay [19] deals with UACC-62 melanoma.
Assay [20] concerns T-47D breast.

Turning to `CC1OC(OC2C(O[C@H]3CC[C@@H]4C(=CC[C@@H]5[C@@]4(C)C(=O)C[C@]4(C)[C@@H]([C@H](C)CC[C@@H](O)C(C)(C)O)CC[C@@]54C)C3(C)C)OC(CO)C(O)C2O)C(O)C(O)C1O` (stereo partly drawn), the TGI in [1], in assay [2], in assay [3], in [4], in assay [5] and in assay [6] was above 100 µM in each case. Besides, the TGI in assay [7], in assay [8], in [9], in [10], in assay [11] and in assay [12] was above 100 µM each time. In addition, the TGI in assay [13], in assay [14], in assay [15], in assay [16], in [17] and in assay [18] was above 100 µM throughout. For the same compound, the TGI in [19] and in assay [20] was above 100 µM in each case.
Turning to `O=C1C=Cc2c(Br)sc(Br)c21`, the TGI in assay [1] was above 100 µM; in assay [2], above 100 µM; in [3], 60 µM; in [4], 52.4 µM; in [5] it was 58.7 µM; in assay [6], 84.9 µM. For the same compound, the TGI was 39.2 µM in [7]; above 100 µM in assay [8]; above 100 µM in assay [9]; above 100 µM in assay [10]; 11.3 µM in [11]; 84.4 µM in assay [12]. The TGI is above 100 µM in assay [13]; 84.8 µM in [14]; above 100 µM in assay [15]; 43.7 µM in [16]; 38.2 µM in [17]; above 100 µM in [18]. Moreover, the TGI is 76.4 µM in assay [19] and 81.8 µM in assay [20].
As for `Cc1ccc(S(=O)(=O)NC(=O)NC(CC(N)=O)C(=O)O)cc1` (stereo not drawn), the TGI in assay [1], in assay [2], in assay [3], in assay [4], in assay [5] and in assay [6] was above 100 µM throughout. The TGI in assay [7], in [8], in assay [9], in assay [10], in assay [11] and in [12] was above 100 µM throughout. Also, the TGI in assay [13], in assay [14], in [15], in assay [16], in assay [17] and in assay [18] was above 100 µM throughout. In addition, the TGI in [19] and in [20] was above 100 µM in each case.
In the case of `NC(N)=Nc1ccc(-c2ccc(N=C(N)N)cc2)cc1`, the TGI in assay [1], in [2], in [3], in assay [4], in assay [5] and in assay [6] was above 100 µM each time. Moreover, the TGI in [7] was above 100 µM; in [8] it was 67.3 µM; in assay [9] it was above 100 µM; in assay [10], 81.3 µM; in [11], above 95.7 µM; in assay [12], above 100 µM. Moreover, the TGI in [13], in assay [14], in assay [15], in [16], in assay [17] and in assay [18] was above 100 µM throughout. Also, the TGI in assay [19] and in assay [20] was above 100 µM each time.
Take `O=C1OCN(c2ccccc2)C12CCN(Cc1ccccc1)CC2`: the TGI in assay [1] is above 100 µM; in assay [2] it was 62.3 µM; in [3] it was above 100 µM; in assay [4], 66.6 µM; in assay [5], above 100 µM; in assay [6], 34 µM. Besides, the TGI is above 100 µM in assay [7]; 55.4 µM in assay [8]; above 100 µM in [9]; above 100 µM in assay [10]; 48.7 µM in [11]; 33.1 µM in assay [12]. Besides, the TGI was 47.2 µM in [13]; above 100 µM in assay [14]; 31.1 µM in [15]; 49.8 µM in assay [16]; 31.5 µM in [17]; above 100 µM in [18]. In addition, the TGI worked out at 37.2 µM in [19] and 63.8 µM in assay [20].
With `COc1cccc2c1C(=O)C1=C(C2=O)C(O)CC(C)(C)O1` (stereo not drawn), the TGI in assay [1] is above 100 µM; in [2], 36 µM; in [3], above 100 µM; in assay [4] it was 87.7 µM; in [5], 33.8 µM; in assay [6], above 100 µM. Besides, the TGI in [7] was above 100 µM; in [8], above 100 µM; in [9] it was above 100 µM; in [10], above 100 µM; in assay [11], 66.9 µM; in assay [12] it was above 100 µM. Besides, the TGI in assay [13] is 91.2 µM; in assay [14], above 100 µM; in assay [15] it was above 100 µM; in assay [16], above 100 µM; in assay [17] it was above 100 µM; in assay [18], above 100 µM. The values for the TGI in assay [19] and in assay [20] were 60.9 µM and above 100 µM, respectively.
Consider `CC(=O)Oc1c(C)c2c(c3ncccc13)OC(C)C2` (stereo not drawn), for which the TGI in [1] amounted to 26.2 µM; in assay [2] it was 32.3 µM; in assay [3] it was 28.2 µM; in [4], 26.2 µM; in assay [5], 38.8 µM; in assay [6], 26.8 µM. Further, the TGI in [7] came to 28.4 µM; in [8] it was 59.4 µM; in assay [9], 28.8 µM; in [10], 31 µM; in assay [11], 38.5 µM; in [12] it was 28.5 µM. Further, the TGI in assay [13] was 28.7 µM; in [14], 30.9 µM; in assay [15] it was 28.5 µM; in [16], 27.2 µM; in [17], 28.8 µM; in [18], above 100 µM. The TGI in assay [19] stood at 24.6 µM; in assay [20], 34.8 µM.
In the case of `C/C=C/C(C#N)(/C=C/c1ccccc1)OP1(=O)OC(c2ccccc2)C(C)N1C` (stereo not drawn), the TGI in assay [1] came out at 45.4 µM; in assay [2], 39 µM; in [3], 31.6 µM; in assay [4], 34.9 µM; in assay [5], 32.9 µM; in assay [6] it was 32.7 µM. Further, the TGI in assay [7] is 32.6 µM; in assay [8], 49.9 µM; in [9], 42.1 µM; in [10] it was 43.6 µM; in assay [11], 28 µM; in assay [12] it was 37.1 µM. In addition, the TGI in assay [13] turned out to be 36.7 µM; in assay [14], 36.1 µM; in assay [15], 31 µM; in assay [16], 39.2 µM; in [17], 32.8 µM; in assay [18], 42.1 µM. For the same compound, the TGI in [19] was determined as 34.5 µM; in assay [20], 68.9 µM.
As for `Cn1c2ccc([N+](=O)[O-])cc2c(=O)n1Cc1ccccc1F`, the TGI in assay [1] was above 100 µM; in assay [2], above 100 µM; in assay [3] it was 91.6 µM; in [4], above 100 µM; in assay [5], above 100 µM; in assay [6] it was above 100 µM. Also, the TGI in assay [7] was above 100 µM; in [8], 82.8 µM; in assay [9] it was above 100 µM; in assay [10] it was above 100 µM; in assay [11] it was above 100 µM; in assay [12] it was above 100 µM. The TGI in assay [13], in [14], in assay [15], in assay [16], in assay [17] and in assay [18] was above 100 µM throughout. In addition, the TGI in assay [19] and in assay [20] was above 100 µM each time.
Take `CC1=NN(c2nc(N)nc(/C(C#N)=C/c3ccccc3O)n2)C(C)(C)C1`: the TGI in [1] came to 31.5 µM; in assay [2], 30.7 µM; in assay [3], 36.7 µM; in assay [4] it was 40.7 µM; in [5], 65.3 µM; in assay [6], 30.8 µM. The TGI in [7] is 36.5 µM; in assay [8] it was 35.4 µM; in [9] it was 37.1 µM; in assay [10], 30.4 µM; in assay [11] it was 35.5 µM; in [12], 36.4 µM. Besides, the TGI is 31.4 µM in assay [13]; 38.8 µM in assay [14]; 30.7 µM in [15]; 41.3 µM in assay [17]; 91.7 µM in [18]; 33.5 µM in assay [19]. In assay [20], this compound returned a TGI of 31.9 µM.
On to `CN(C)CCCN1c2ccc([N+](=O)[O-])cc2CCc2cccc([N+](=O)[O-])c21`, for which the TGI in [1] stood at 29.5 µM; in [2] it was 29.2 µM; in assay [3], 26.8 µM; in assay [4], 26.1 µM; in assay [5], 37 µM; in [6], 30.1 µM. Further, the TGI in assay [8] came out at 31.7 µM; in assay [9], 29 µM; in assay [10], 33.3 µM; in assay [11], 46.4 µM; in assay [12], 28 µM; in assay [13], 28.9 µM. Besides, the TGI in assay [14] was determined as 27 µM; in assay [15], 28.2 µM; in [16] it was 39.5 µM; in assay [17], 29.3 µM; in [18], 36.1 µM; in assay [19], 10.4 µM. In assay [20], this compound gave a TGI of 37.2 µM.

(Values after PubChem BioAssay (NCI).)
